Measurements reported in US20210338782A1, “STORAGE STABLE SOMATOSTATIN-DOPAMINE CHIMERIC COMPOUNDS AND SALT FORMS THEREOF” (Cydan II, Inc., priority 2019, published 2021).
Where a name gives a salt, the structure may show the parent alone.

Tests used:
Type in all cases: physicochemical
[1] = Solid state (thermolytic) stability of TBR-760 salt forms, open container, UPLC peak purity and appearance; settings: for Purity, T = 2 wk / Purity, T = 4 wk / Purity, Control: UPLC peak purity; for Purity, Control / Appearance, Control: stored at -20° C.
Method: Each TBR-760 salt was further evaluated for thermolytic stability over time by setting up three different exposure conditions (25° C. at 60% relative humidity (RH); 40° C. at 75% RH; or 60° C. with open and closed container systems (open dish/closed dish). Approximately 50 mg of each salt form was weighed in a nitrogen-flushed glove box for use in the studies. All samples were stored at −20° C. in a good laboratory practice (GLP) freezer both before and after exposure to the indicated conditions.
The stability of each salt form was assessed by monitoring the post-exposure drug peak purity and by evaluating the post-exposure visual appearance of the salt. The samples were removed from the exposure conditions and allowed to equilibrate to ambient conditions for 15-20 mins. An appropriate amount of each sample was weighed for analysis and dissolved in diluent (deionized water containing 0.1% TFA) to obtain a stock concentration of 1 mg/mL. The stock solution was then diluted to 0.125 mg/mL in an HPLC vial using diluent and the samples were run on a Waters Acquity UPLC system using the parameters shown in Table 4.

[2] = Thermogravimetric analysis (TGA) of TBR-760 salt forms; settings: ramp 5.0° C. per minute from 25 to 400° C.
Method: Thermogravimetric analyses (TGA) were performed on all TBR-760 salt forms to evaluate thermal stability of each salt form. Studies were performed using a TGA-Q500 thermogravimetric analyzer (TA Instruments). The weight of each compound was measured while the temperature was increased at a ramp rate of 5.0° C. per minute from 25 to 400° C. […] The weight loss may be indicative of loss of adsorbed moisture, entrained solvent or volatile impurities. Decomposition of the compound appears to start at about 234° C. (sulfate salt), 245° C. (chloride salt), 252° C. (tosylate salt), and 255° C. (mesylate salt). For the acetate salt, a further ˜5% loss of weight between 110° C. and 200° C. was observed, indicating loss of volatile acetate ions over that temperature range (FIG. 8).

[3] = Photostability of TBR-760 salt forms (ICH Q1B, visible and UV light), appearance and UPLC purity; settings: for Purity, UV-exposed / Purity, Control / Purity, Dark Ctrl-UV / Purity, Dark Crtl-Light / Purity, Light-exposed / degradation upon exposure to visible or UV light, in words: UPLC; for Purity, UV-exposed / Appearance, UV-exposed: UV 200 watt hours/square meter; for Purity, UV-exposed / Purity, Light-exposed / Appearance, UV-exposed / Appearance, Light-exposed: clear sealed vial; for Purity, Control / Appearance, Control: control in sealed amber vial at -20° C.; for Purity, Dark Ctrl-UV / Appearance, Dark Ctrl-UV: dark control in UV chamber; for Purity, Dark Crtl-Light / Appearance, Dark Crtl-Light: dark control in visible light chamber; for Purity, Light-exposed / Appearance, Light-exposed: visible light 1.2 million lux hours; for Appearance, Dark Ctrl-UV / Appearance, Dark Crtl-Light: amber vial wrapped in aluminum foil; for degradation upon exposure to visible or UV light, in words: visible and UV light
Excerpt: In order to evaluate the light sensitivity and stability of TBR-760 chimeric peptide salts, all five salt forms were exposed to ultraviolet (UV) and visible light according to International Council for Harmonisation of Technical Requirements for Pharmaceuticals for Human Use (ICH) guideline Q1B for photostability testing. In brief, a Caron 6540-1 photostability chamber unit with separate UV and light chambers was used for the studies. Visible light exposure was 1.2 million lux hours and UV exposure was 200 watt hours/square meter.
Samples were placed in clear, sealed vials and stored in the appropriate chamber alongside dark controls in amber colored vials wrapped in aluminum foil. Control samples were stored in sealed amber vials at −20° C. The appearance of exposed samples was examined visually before being analyzed via UPLC.

[4] = 25° C. at 60% RH, open container
[5] = 40° C. at 75% RH, open container

Row | SMILES | Appearance, T = 2 wk [1, 4] | Appearance, T = 4 wk [1, 4] | Appearance, T = 3 d [1, 4] | Appearance, T = 2 wk [1, 5] | Appearance, T = 4 wk [1, 5] | Appearance, T = 3 d [1, 5] | Appearance, T = 2 wk ([1]; 60° C., open dish) | Appearance, T = 4 wk ([1]; 60° C., open dish) | Appearance, T = 3 d ([1]; 60° C., open dish) | Purity, T = 2 wk [1, 4] | Purity, T = 4 wk [1, 4] | Purity, T = 2 wk [1, 5] | Purity, T = 4 wk [1, 5] | Purity, T = 2 wk ([1]; 60° C., open dish) | Purity, T = 4 wk ([1]; 60° C., open dish) | Purity, Control [1] | Appearance, Control [1] | Appearance, Control [3] | Appearance, Dark Ctrl-UV [3] | Appearance, Dark Crtl-Light [3] | also measured
1 | CCCN1C[C@H](CSCC(=O)NCCCC[C@@H](NC(=O)CSC[C@@H]2C[C@@H]3c4cccc5[nH]cc(c45)C[C@H]3N(CCC)C2)C(=O)N[C@H]2CSSC[C@@H](C(=O)N[C@H](C(N)=O)[C@@H](C)O)NC(=O)[C@H](CC)NC(=O)[C@H](CCCCN)NC(=O)[C@@H](Cc3c[nH]c4ccccc34)NC(=O)[C@H](Cc3ccc(O)cc3)NC2=O)C[C@@H]2c3cccc4[nH]cc(c34)C[C@H]21 [TBR-760 mesylate, Dop2-D-Lys(Dop2)-cyclo[Cys-Tyr-D-Trp-Lys-Abu-Cys]-Thr-NH2] | White | White | White | White | White | White | White | White | White | 98.14 | 97.77 | 97.49 | 97.35 | 97.56 | 97.17 | 98.39 | White | white | white | white | stability compared with the other salt forms ([1]; 40° C. at 75% RH and 60° C., 2 and 4 weeks): significantly more stable; TGA start of decomposition ([2]; listed as mesylate salt): ~255 °C; Purity, UV-exposed [3]: 96.67; Purity, Control [3]: 98.39; Purity, Dark Ctrl-UV [3]: 98.35; Purity, Dark Crtl-Light [3]: 98.46; Purity, Light-exposed [3]: 95.3; Appearance, UV-exposed ([3]; listed as Mesylate): off-white; Appearance, UV-exposed ([3]; listed as mesylate): white to off-white; degradation upon exposure to visible or UV light, in words [3]: more resistant to degradation than TBR-760 acetate; Appearance, Light-exposed ([3]; listed as Mesylate): off-white; Appearance, Light-exposed ([3]; listed as mesylate): white to off-white
2 | CCCN1C[C@H](CSCC(=O)NCCCC[C@@H](NC(=O)CSC[C@@H]2C[C@@H]3c4cccc5[nH]cc(c45)C[C@H]3N(CCC)C2)C(=O)N[C@H]2CSSC[C@@H](C(=O)N[C@H](C(N)=O)[C@@H](C)O)NC(=O)[C@H](CC)NC(=O)[C@H](CCCCN)NC(=O)[C@@H](Cc3c[nH]c4ccccc34)NC(=O)[C@H](Cc3ccc(O)cc3)NC2=O)C[C@@H]2c3cccc4[nH]cc(c34)C[C@H]21 [TBR-760 sulfate, Dop2-D-Lys(Dop2)-cyclo[Cys-Tyr-D-Trp-Lys-Abu-Cys]-Thr-NH2] | White | White | White | White | White | White | White | White | White | 97.34 | 97.75 | 97.08 | 97.3 | 93.7 | 92.01 | 98.04 | White | white | white | white | additional degradants in chromatogram versus control ([1]; two weeks at 60° C., open dish, UPLC, listed as sulfate salt): more than 10; TGA start of decomposition ([2]; listed as sulfate salt): about 234 °C; Purity, UV-exposed ([3]; listed as Sulphate): 96.24; Purity, Control ([3]; listed as Sulphate): 98.04; Purity, Dark Ctrl-UV ([3]; listed as Sulphate): 98.17; Purity, Dark Crtl-Light ([3]; listed as Sulphate): 98.19; Purity, Light-exposed ([3]; listed as Sulphate): 94.82; Appearance, UV-exposed [3]: white to off-white; Appearance, UV-exposed ([3]; listed as Sulphate): off-white; degradation upon exposure to visible or UV light, in words [3]: more resistant to degradation than TBR-760 acetate; Appearance, Light-exposed [3]: no visible discoloration; Appearance, Light-exposed ([3]; listed as Sulphate): white
